In article PMC5786788, “Antimicrobial Octapeptin C4 Analogues Active against Cryptococcus Species” (Antimicrobial Agents and Chemotherapy, 2018):
Values after ≈ are worked out from the molar mass of the structure shown. Where a SMILES comes first, the peptide text is derived from it. Bridges are numbered along the chain shown (N, C = ends). [ ]: non-standard residue; d: D form. The star is where a group is joined. Decanoyl(3R-OH) = CCCCCCC[C@@H](O)CC(=O)*; dDab = NCC[C@@H](N)C(=O)O; Dab = NCC[C@H](N)C(=O)O

Experiments:
[1] = tested on: C. neoformans var. gattii; assay: organism not typed; details: no visible growth
Experimental: (§1) The MICs of the yeast strains for PMB, PME, and octapeptin C4 and its derivatives were determined in accordance with CLSI M27-A2 guidelines using YNB (Becton Dickinson, USA) medium supplemented with 10 mM ammonium sulfate and 2% glucose, a final inoculum concentration of 1.5 × 10^3 to 2.0 × 10^3 cells/ml, and incubation at 35°C for 72 h ([39]). […] The MICs for PMB, PME, and octapeptin C4 for A. fumigatus were determined in accordance with the CLSI M38-A2 guidelines ([40]) using synthetic RPMI 1640 medium (with glutamine, without bicarbonate and with phenol red; Life Technologies, USA). The final inoculum concentration was 0.4 × 10^4 to 5 × 10^4 cells/ml, with incubation at 35°C for 48 h. […] All assays were completed in triplicate. Fluconazole was used as a positive control where the MIC was determined at both 50% growth (in accordance with CLSI M27-A2 guidelines) and when there was a “no visible growth” reading.

[2] = tested on: C. neoformans var. neoformans; assay: microbe, parasite or virus in culture; details: no visible growth
Experimental: as §1

human kidney-2 cell line = details: cited from earlier work
[3] = tested on: C. neoformans var. grubii; assay: organism not typed; details: no visible growth
Experimental: The MICs of the yeast strains for PMB, PME, and octapeptin C4 and its derivatives were determined in accordance with CLSI M27-A2 guidelines using YNB (Becton Dickinson, USA) medium supplemented with 10 mM ammonium sulfate and 2% glucose, a final inoculum concentration of 1.5 × 10^3 to 2.0 × 10^3 cells/ml, and incubation at 35°C for 72 h ([39]). […] The MICs for PMB, PME, and octapeptin C4 for A. fumigatus were determined in accordance with the CLSI M38-A2 guidelines ([40]) using synthetic RPMI 1640 medium (with glutamine, without bicarbonate and with phenol red; Life Technologies, USA). The final inoculum concentration was 0.4 × 10^4 to 5 × 10^4 cells/ml, with incubation at 35°C for 48 h. […] All assays were completed in triplicate. Fluconazole was used as a positive control where the MIC was determined at both 50% growth (in accordance with CLSI M27-A2 guidelines) and when there was a “no visible growth” reading. […]

C. neoformans ATCC 90113 = details: ATCC 90113, 72 h
Experimental: (§2) A broth microdilution assay was initially used to characterize the antifungal activity of the cyclic lipopeptides ([39], [40]). […] common pathogenic yeasts (C. albicans, C. glabrata, C. parapsilosis, C. neoformans, and C. gattii) and one pathogenic mold (A. fumigatus) were tested to determine the MIC for each compound (Table 1) using broth microdilution. […] The only structural difference between these molecules is the presence of a phenylalanine residue at position 6 in PMB; in PME a D-leucine is present at this location (Fig. 1).
(§3) Fungal strains were stored in 15% glycerol at −80°C until use. The fungal strains used were H99 (C. neoformans type strain) ([55]), cap59Δ (an acapsular H99 mutant) ([56]), ATCC 90113 (C. neoformans), MMRL 2651 (C. gattii), ATCC 90028 (Candida albicans), ATCC 90030 (Candida glabrata), ATCC 22019 (Candida parapsilosis), and ATCC MYA 3626 (Aspergillus fumigatus). Yeasts were cultured in liquid (1% yeast extract, 2% Bacto peptone, 2% glucose) or solid (additional 2% agar) yeast extract-peptone-dextrose (YPD) media at 30°C and maintained at 4°C for no longer than 2 weeks. A. fumigatus was prepared on potato dextrose medium at 30°C and maintained at 4°C for no longer than 2 weeks.
as §1

C. gattii MMRL 2651 = details: 72 h
Experimental: as §2, §3, §1

Structure (SMILES): CCCCCCC[C@@H](O)CC(=O)N[C@H](CCN)C(=O)N[C@H]1CCNC(=O)[C@H](CC(C)C)NC(=O)[C@H](CCN)NC(=O)[C@H](CCN)NC(=O)[C@H](CC(C)C)NC(=O)[C@@H](Cc2ccccc2)NC(=O)[C@H](CCN)NC1=O [Octapeptin C4, octapeptin C4] ({Decanoyl(3R-OH)}-[dDab][Dab][Dab][dF]L[Dab][Dab]L; lactam 2-C (inferred); N-terminus assumed)
- MIC ([1]; strain ATCC 24066 (NIH 18)): 1.56 µg/mL (≈ 1.49 µM)
- MIC ([1]; strain ATCC 32269): 3.13 µg/mL (≈ 3 µM)
- MIC ([1]; strain ATCC 32608 (NIH 191)): 0.78 µg/mL (≈ 0.747 µM)
- MIC ([1]; strain ATCC 32609 (NIH444)): 3.13 µg/mL (≈ 3 µM)
- MIC ([1]; strain ATCC 34878): 3.13 µg/mL (≈ 3 µM)
- MIC ([1]; strain ATCC 34882): 6.25 µg/mL (≈ 5.98 µM)
- MIC ([1]; strain B5748 (VGIV HIV India)): 3.13 µg/mL (≈ 3 µM)
- MIC ([1]; strain R266 (Vancouver Island)): 1.56 µg/mL (≈ 1.49 µM)
- MIC ([1]; strain R267 (Vancouver Island)): 12.50 µg/mL (≈ 12 µM)
- MIC ([1]; strain R268 (Vancouver Island)): 3.13 µg/mL (≈ 3 µM)
- MIC ([1]; strain R269 (Vancouver Island)): 3.13 µg/mL (≈ 3 µM)
- MIC ([1]; strain R270 (Vancouver Island)): 3.13 µg/mL (≈ 3 µM)
- MIC ([2]; strain WM 01.127 (USA)): 1.56 µg/mL (≈ 1.49 µM)
- MIC ([2]; strain WM 02.141 (Russia)): 3.13 µg/mL (≈ 3 µM)
- MIC ([2]; strain WM 02.142 (Russia)): 1.56 µg/mL (≈ 1.49 µM)
- MIC ([2]; strain WM 02.143 (Russia)): 3.13 µg/mL (≈ 3 µM)
- MIC ([2]; strain WM 02.37 (Canada)): 1.56 µg/mL (≈ 1.49 µM)
- MIC ([2]; strain WM 02.52 (Canada)): 1.56 µg/mL (≈ 1.49 µM)
- MIC ([2]; strain WM 04.168 (Chile)): 1.56 µg/mL (≈ 1.49 µM)
- MIC ([2]; strain WM 04.171 (Thailand, environmental)): 1.56 µg/mL (≈ 1.49 µM)
- MIC ([2]; strain WM 05.467 (Brazil, environmental)): 1.56 µg/mL (≈ 1.49 µM)
- MIC ([2]; strain WM 05.515 (Peru)): 1.56 µg/mL (≈ 1.49 µM)
- MIC ([2]; strain WM 09.109 (Italy, environmental)): 1.56 µg/mL (≈ 1.49 µM)
- MIC ([2]; strain WM 09.112 (USA)): 1.56 µg/mL (≈ 1.49 µM)
- MIC ([2]; strain WM 10.119 (Australia)): 1.56 µg/mL (≈ 1.49 µM)
- MIC ([2]; strain WM 629 (Australia)): 3.13 µg/mL (≈ 3 µM)
- MIC ([2]; strain WM 1706 (Argentina)): 1.56 µg/mL (≈ 1.49 µM)
- MIC ([2]; strain WM 1740 (Chile)): 3.13 µg/mL (≈ 3 µM)
- MIC ([2]; strain WM 2207 (USA, environmental)): 1.56 µg/mL (≈ 1.49 µM)
- MIC ([2]; strain WM 2242 (USA)): 1.56 µg/mL (≈ 1.49 µM)
- MIC ([2]; strain WM 2530 (USA)): 3.13 µg/mL (≈ 3 µM)
- 50% cytotoxic concentration (human kidney-2 cell line): 31 µM
- MIC ([3]; strain 486 (USA)): 3.13 µg/mL (≈ 3 µM)
- MIC ([3]; strain 488 (AIDS+, pre-HAART USA)): 1.56 µg/mL (≈ 1.49 µM)
- MIC ([3]; strain 490 (USA)): 1.56 µg/mL (≈ 1.49 µM)
- MIC ([3]; strain 496 (USA)): 1.56 µg/mL (≈ 1.49 µM)
- MIC ([3]; strain 500 (USA)): 1.56 µg/mL (≈ 1.49 µM)
- MIC ([3]; strain 502 (ARR3+ USA)): 3.13 µg/mL (≈ 3 µM)
- MIC ([3]; strain 505 (India)): 1.56 µg/mL (≈ 1.49 µM)
- MIC ([3]; strain 507 (India)): 1.56 µg/mL (≈ 1.49 µM)
- MIC ([3]; strain 512 (India)): 3.13 µg/mL (≈ 3 µM)
- MIC ([3]; strain 516 (India)): 3.13 µg/mL (≈ 3 µM)
- MIC ([3]; strain 518 (VNI India)): 1.56 µg/mL (≈ 1.49 µM)
- MIC ([3]; strain 522 (India)): 3.13 µg/mL (≈ 3 µM)
- MIC ([3]; strain 525 (India)): 1.56 µg/mL (≈ 1.49 µM)
- MIC ([3]; strain 1188 (Japan lung)): 3.13 µg/mL (≈ 3 µM)
- MIC ([3]; strain 1189 (USA BAL/HIV)): 1.56 µg/mL (≈ 1.49 µM)
- MIC ([3]; strain 1194 (Italy)): 1.56 µg/mL (≈ 1.49 µM)
- MIC ([3]; strain 1196 (Botswana CSF/AIDS)): 3.13 µg/mL (≈ 3 µM)
- MIC ([3]; strain 1197 (Botswana CSF/AIDS)): 3.13 µg/mL (≈ 3 µM)
- MIC ([3]; strain 1199 (Uganda CSF/HIV+ VNII)): 1.56 µg/mL (≈ 1.49 µM)
- MIC ([3]; strain H99O (lab strain)): 1.56 µg/mL (≈ 1.49 µM)
- MIC C. neoformans ATCC 90113 (C. neoformans ATCC 90113): 1.56 µg/mL (≈ 1.49 µM)
- MICs against various Cryptococcus strains: ATCC 90113 (C. neoformans ATCC 90113): 1.56 µg/mL
- MIC C. gattii (C. gattii MMRL 2651): 3.13 µg/mL (≈ 3 µM)
- MICs against various Cryptococcus strains: MMRL 2651 (C. gattii MMRL 2651): 3.13 µg/mL
